Assay results published in patent US8084645B2, “4-phenylamino-benzaldoxime derivatives and uses thereof as mitogen-activated protein kinase kinase (MEK) inhibitors” (Chugai Seiyaku Kabushiki Kaisha, priority 2003, dated 2011).
Values after ≈ are worked out from the molar mass of the structure shown. Where two headings read alike, the source gives them in different places.

Key:
[1] = Determination of stability against mouse liver microsomes; format: in vitro ADME; details: mouse liver microsomes 1 mg protein/mL, 2 mM NADPH, pH 7.4, 37 C; read-out: Stability against mouse liver microsome NADPH+ T1/2
Procedure: (§1) The enzyme reaction was quenched with three volumes of acetonitrile, and the reaction mixture was centrifuged at 1,500 rpm for ten minutes to provide a supernatant as a sample to be measured. Stability against mouse liver microsomes was measured using HPLC/MS to determine the compounds in the sample.

[2] = test system: Human colon cancer cell line HT-29; experiment: Determination of the activity of inhibiting cell proliferation (Cell Counting Kit-8); format: cell-based; details: HT-29, 96 h, HT29, 2,000 cells/well, incubated four days, read-out: Cell proliferation inhibitory activity (HT29) IC50
Procedure: Human colon cancer cell line HT-29, obtained from American Type Culture Collection (VA, USA), and human non-small cell lung cancer cell line QG56, obtained from Immuno-Biological Laboratories Co., Ltd., were plated at 2,000 cells/well in a 96-well culture plate, and incubated for four days after addition of a MEK inhibitor of a given concentration.

[3] = phase I clinical trials; cited from earlier work
[4] = Determination of stability against human liver microsomes; format: in vitro ADME; details: human liver microsomes 1 mg protein/mL, 2 mM NADPH, pH 7.4, 37 C; read-out: Stability against human liver microsome NADPH+ T1/2
Procedure: as §1, with “human” for “mouse”

[5] = Determination of water solubility (equilibrium stirring method); format: physicochemical; details: for solubility at 2 h: aqueous buffer, thermodynamic from solid, read-out: Water solubility (LySA PH 6.5)
Procedure: The vessels were sealed, and the contents were sonicated at room temperature (20° C.) for ten minutes, and then stirred with a stirrer for two hours. After reaching solution equilibrium, the solution was separated with a membrane filter, and the solute concentration was determined using HPLC.

MEK = MEK (Homo sapiens, UniProt Q02750); experiment: Determination of MEK inhibitory activities (Raf-1 kinase cascade assay, MBP phosphorylation, 33P-ATP)
MEK, sequence (Q02750 whole entry): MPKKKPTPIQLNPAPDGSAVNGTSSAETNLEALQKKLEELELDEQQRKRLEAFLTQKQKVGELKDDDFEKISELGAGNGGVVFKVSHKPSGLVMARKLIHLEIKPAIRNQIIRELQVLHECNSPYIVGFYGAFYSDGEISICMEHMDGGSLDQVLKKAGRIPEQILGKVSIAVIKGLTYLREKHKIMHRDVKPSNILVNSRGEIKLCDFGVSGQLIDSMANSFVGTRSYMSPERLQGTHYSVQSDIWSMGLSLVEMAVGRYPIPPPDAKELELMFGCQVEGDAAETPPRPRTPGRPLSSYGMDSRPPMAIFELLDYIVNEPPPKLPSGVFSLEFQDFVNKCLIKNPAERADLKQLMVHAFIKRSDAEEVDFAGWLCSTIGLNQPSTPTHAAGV
Description: The radioisotope used was [γ^33P]-ATP (Amersham Biosciences, K.K.).

[6] = 50 mM phosphate buffer pH 6.5, room temperature (20 C)

| SMILES | half-life [1] [h] | IC50 [2] [nM] | differences in pharmacokinetic parameters between patients [3] | in vivo inactivation [3] | half-life [4] [h] | Water solubility (LySA PH 6.5) [5, 6] [µM] | IC50 (MEK) [nM] | solubility at 2 h [5, 6] [µM] | solubility at 2 h ([5]; phosphate buffer, 20 °C, at pH 6.06) [µM] | solubility at 2 h ([5]; phosphate buffer, 20 °C, at pH 6.87) [µM] |
| --- | --- | --- | --- | --- | --- | --- | --- | --- | --- | --- |
| O=C(NOCC1CC1)c1ccc(F)c(F)c1Nc1ccc(I)cc1Cl [CI-1040, reference compound] | 0.18 | 100 | large differences | quick in vivo inactivation by hydrolysis | 0.482 | – | – | – | – | – |
| O=C(NOCCO)c1cc(/C=N\OCCO)c(F)c(F)c1Nc1ccc(I)cc1F [Compound 49, (Z)-3,4-difluoro-2-(2-fluoro-4-iodo-phenylamino)-N-(2-hydroxy-ethoxy)-5-[(2-hydroxy-ethoxyimino)-methyl]-benzamide] | > 6 | 4.8 | – | – | > 6 | 75 | 31 | – | – | – |
| CNC(=O)CCCO/N=C/c1cc(C(=O)NOCCO)c(Nc2ccc(I)cc2F)c(F)c1F [Compound 44] | > 6 | 328 | – | – | > 6 | – | 25 | 6 (≈ 3.57 µg/mL) | – | – |
| NCCO/N=C/c1cc(C(=O)NOCCO)c(Nc2ccc(I)cc2F)c(F)c1F [Compound 22, (E)-5-[(2-amino-ethoxyimino)-methyl]-3,4-difluoro-2-(2-fluoro-4-iodo-phenylamino)-N-(2-hydroxy-ethoxy)-benzamide] | > 6 | 36 | – | – | > 6 | – | 75 | 146 (≈ 78.6 µg/mL) | – | – |
| C#Cc1ccc(Nc2c(C(=O)NOCCO)cc(/C=N/OCCO)c(F)c2F)c(F)c1 [Compound 2, (E)-2-(4-ethynyl-2-fluoro-phenylamino)-3,4-difluoro-N-(2-hydroxy-ethoxy)-5-[(2-hydroxy-ethoxyimino)-methyl]-benzamide] | 2.25 | 150 | – | – | 1.34 | 415 | 240 | – | – | – |
| C#Cc1ccc(Nc2c(C(=O)NOCCO)cc(/C=N/OCC(O)CO)c(F)c2F)c(F)c1 (racemic) [Compound 8, (E)-dl-5-[(2,3-Dihydroxy-propoxyimino)-methyl]-2-(4-ethynyl-2-fluoro-phenylamino)-3,4-difluoro-N-(2-hydroxy-ethoxy)-benzamide] | > 6 | 185 | – | – | 1.24 | – | 150 | – | 1470 (≈ 687 µg/mL) | – |
| CN(C)CCO/N=C/c1cc(C(=O)NOCCO)c(Nc2ccc(I)cc2F)c(F)c1F [Compound 16, (E)-5-[(2-dimethylamino-ethoxyimino)-methyl]-3,4-difluoro-2-(2-fluoro-4-iodo-phenylamino)-N-(2-hydroxy-ethoxy)-benzamide] | 3.08 | 210 | – | – | > 6 | – | 244 | 2400 (≈ 1360 µg/mL) | – | – |
| C#Cc1ccc(Nc2c(C(=O)NOCCO)cc(/C=N/OCCCO)c(F)c2F)c(F)c1 [Compound 5, (E)-2-(4-Ethynyl-2-fluoro-phenylamino)-3,4-Difluoro-N-(2-hydroxy-ethoxy)-5-[(3-hydroxy-propoxyimino)-methyl]-benzamide] | > 6 | 170 | – | – | 4.12 | – | 150 | – | – | 426 (≈ 192 µg/mL) |
| C#Cc1ccc(Nc2c(C(=O)NOCCO)cc(/C=N\OCCO)c(F)c2F)c(F)c1 [Compound 48, (Z)-2-(4-ethynyl-2-fluoro-phenylamino)-3,4-difluoro-N-(2-hydroxy-ethoxy)-5-[(2-hydroxy-ethoxyimino)-methyl]-benzamide] | 2.03 | 13 | – | – | 0.603 | – | 51 | 301 (≈ 132 µg/mL) | – | – |
| O=C(NOCCO)c1cc(/C=N/OCCN2CCOCC2)c(F)c(F)c1Nc1ccc(I)cc1F [Compound 18, (E)-3,4-difluoro-2-(2-fluoro-4-iodo-phenylamino)-N-(2-hydroxy-ethoxy)-5-[(2-morpholin-4-yl-ethoxyimino)-methyl]-benzamide] | > 6 | 140 | – | – | > 6 | – | 262 | 164 (≈ 99.8 µg/mL) | – | – |
| O=C(NOCCO)c1cc(/C=N/OCCN2CCC[C@H]2CO)c(F)c(F)c1Nc1ccc(I)cc1F [Compound 20, (E)-3,4-difluoro-2-(2-fluoro-4-iodo-phenylamino)-N-(2-hydroxy-ethoxy)-5-{[2-((S)-hydroxymethyl-pyrrolidin-1-yl)-ethoxyimino]-methyl}-benzamide] | > 6 | 643 | – | – | > 6 | – | 696 | 1830 (≈ 1140 µg/mL) | – | – |
| O=C(NOCCO)c1cc(/C=N\OCC(O)CO)c(F)c(F)c1Nc1ccc(I)cc1F (stereo not drawn) [Compound 52, (dl)-(Z)-5-[(2,3-Dihydroxy-propoxyimino)-methyl]-3,4-difluoro-2-(2-fluoro-4-iodo-phenylamino)-N-(2-hydroxy-ethoxy)-benzamide] | > 6 | 5.8 | – | – | > 6 | – | 15 | 175 (≈ 99.6 µg/mL) | – | – |
| CC(=O)N(C)CCO/N=C/c1cc(C(=O)NOCCO)c(Nc2ccc(I)cc2F)c(F)c1F [Compound 25, (E)-5-{[2-(acetyl-methyl-amino)-ethoxyimino]-methyl}-3,4-difluoro-2-(2-fluoro-4-iodo-phenylamino)-N-(2-hydroxyethoxy)-benzamide] | 3.3 | 44 | – | – | 0.813 | – | 30 | 54 (≈ 32.1 µg/mL) | – | – |
